Patent US8834852B2, “Composition for oral cavity” (Kao Corporation, priority 2004, dated 2014)

Key:
[1] = system: coaggregation of Fusobacterium nucleatum ssp. polymorphum ATCC10953 with Streptococcus sobrinus B13; assay: Percent coaggregation by turbidity change (Vmax, OD 600 nm); type: cell-based; conditions: final concentration 10% (wt/vol %); Vmax of coaggregation buffer control = 100%
Experimental: (§1) Streptococcus sobrinus B13 was used as cariogenic bacteria, while Fusobacterium nucleatum ssp. polymorphum ATCC10953 was used as bacteria of the genus Fusobacterium.
The cariogenic bacteria and bacteria of the genus Fusobacterium were cultured on a brain heart infusion broth (product of Becton, Dickinson and Company) and a GAM broth (product of Nissui Pharmaceutical), respectively, under the conditions of 37° C., and 10% CO2, 10% H2, and 80% N2 during from the logarithmic phase to stationary phase. The respective bacteria were collected by centrifugal separation at 5,000 rpm for 5 minutes. After centrifugal washing (for 5 minutes at 5,000 rpm) three times with a coaggregation buffer (1 mM tris(hydroxymethyl)aminomethane, 0.1 mM calcium chloride, 0.1 mM magnesium chloride, and 0.15 M sodium chloride), they were each adjusted to have a turbidity OD at 600 nm of 2.0.
After addition of 60 μL of each of mannitol, palatinit, erythritol, xylitol, sorbitol and lactitol (product of Wako Pure Chemicals) to a 96-well microtiterplate to give the final concentration of 10% (wt/vol %), 30 μL of the bacteria of the genus Fusobacterium was dispensed and stirred, followed by the addition of 30 μL of the cariogenic bacteria. Then, by using a microplate reader (product of Molecular Devices), the turbidity (OD at 600 nm) was measured at one-minute intervals for 30 minutes and a change ratio Vmax (mOD/min) of the turbidity was calculated. Using the Vmax of a similar mixture containing the coaggregation buffer instead of the test substance as control (100%), the percent coaggregation was calculated. Based on a value thus obtained, the coaggregation reaction was measured.

[2] = system: coaggregation of Fusobacterium nucleatum ssp. polymorphum ATCC10953 with Streptococcus sobrinus B13; assay: Coaggregation inhibition test (precipitation of a clump); type: cell-based; parameters: key to Coaggregation inhibition effect: the mixture in which no precipitation of a clump was observed was evaluated that test substance had a coaggregation inhibition effect (+); the mixture in which precipitation was observed was evaluated that the test substance had no coaggregation inhibition effect (−); conditions: 200 μL of 2% (wt/vol %) test substance solution, room temperature for 30 minutes; for precipitation due to coaggregation: result in words
Experimental: as §1
After inoculation of Streptococcus sobrinus into a brain heart infusion broth, it was cultured at 37° C. for 24 hours under an anaerobic condition. Fusobacterium nucleatum ssp. polymorphum was, on the other hand, inoculated into a GAM bouillon medium and then cultured at 37° C. for 48 hours under an anaerobic condition. After completion of the cultivation, bacteria were collected by centrifugal separation and washed twice with a coaggregation buffer (1 mM tris(hydroxymethyl)aminomethane, 0.1 mM calcium chloride, 0.1 mM magnesium chloride, and 0.15 M sodium chloride). After washing, Fusobacterium nucleatum and Streptococcus sobrinus were adjusted with the coaggregation buffer to give a turbidity (OD: UV-1600, UV-Visible spectrophotometer (product of Shimadzu Corporation)), at wavelength of 600 nm, of 2.0, whereby bacteria suspensions were prepared. Test substances such as a compound represented by the formula (A) were adjusted in advance with the coaggregation buffer to give a concentration of 2% (wt/vol %). Galactose laurate was synthesized in a known manner (Patent Document 2: JP-A-2000-159675). As the other test substances, lactose, galactose, sucrose, glucose, and fructose (each, product of Wako Pure Chemicals), and β-lauryl glucoside, β-lauryl maltoside and sucrose monolaurate (each, product of Dojindo Laboratories) were employed. In the coaggregation test, 400 μL of the suspension of Fusobacterium nucleatum, 200 μL of the suspension of Streptococcus sobrinus, and 200 μL of the 2% (wt/vol %) solution of the test substance were mixed successively by using a No. 2 RIA tube (product of Asahi Techno Glass).

Molecule	percent coaggregation [1]	Coaggregation inhibition effect [2]	precipitation due to coaggregation [2]
OC[C@@H](O)[C@H](O)[C@@H](O)CO [xylitol]	20%		
OC[C@@H](O)[C@@H](O)[C@H](O)[C@H](O)CO [mannitol]	16%		
OC[C@H]1O[C@@](CO)(O[C@H]2O[C@H](CO)[C@@H](O)[C@H](O)[C@H]2O)[C@@H](O)[C@@H]1O [Sucrose, sucrose]		−	obvious precipitation due to coaggregation is observed
sucrose monolaurate		−	obvious precipitation due to coaggregation is observed
OC[C@@H](O)[C@@H](O)[C@H](O)[C@@H](O)CO [sorbitol]	62%		
OC[C@@H](O)[C@@H](O[C@@H]1O[C@H](CO)[C@H](O)[C@H](O)[C@H]1O)[C@H](O)[C@@H](O)CO [lactitol]	0%		
O=C[C@H](O)[C@@H](O)[C@@H](O)[C@H](O)CO [Galactose, galactose]		+	no precipitation due to coaggregation is observed
CCCCCCCCCCCCO[C@@H]1O[C@H](CO)[C@@H](O)[C@H](O)[C@H]1O [β-Lauryl glucoside, β-lauryl glucoside]		−	obvious precipitation due to coaggregation is observed
CCCCCCCCO[C@@H]1O[C@H](CO)[C@H](O)[C@H](O)[C@H]1O [β-octyl galactoside]		+	no precipitation due to coaggregation is observed
OC[C@H]1O[C@@H](O[C@H]2[C@H](O)[C@@H](O)C(O)O[C@@H]2CO)[C@H](O)[C@@H](O)[C@H]1O (stereo partly shown) [Lactose, lactose]		+	no precipitation due to coaggregation is observed
CCCCCCCCCCCCOCCOCCOCCO[C@@H]1O[C@H](CO)[C@H](O)[C@H](O)[C@H]1O [β-Trioxyethylene dodecylgalactoside, β-trioxyethylene lauryl galactoside]		+	no precipitation due to coaggregation is observed
CCCCCCCCCCCCO[C@@H]1O[C@H](CO)[C@@H](O[C@H]2O[C@H](CO)[C@@H](O)[C@H](O)[C@H]2O)[C@H](O)[C@H]1O [β-Lauryl maltoside, β-lauryl maltoside]		−	obvious precipitation due to coaggregation is observed
OC[C@@H](O)[C@@H](O)CO [erythritol]	35%		
palatinit	71%		
O=C(CO)[C@@H](O)[C@H](O)[C@H](O)CO [Fructose, fructose]		−	obvious precipitation due to coaggregation is observed
CCCCCCCCO[C@H]1O[C@H](CO)[C@H](O)[C@H](O)[C@H]1O [α-Octyl galactoside, α-octyl galactoside]		+	no precipitation due to coaggregation is observed
Galactose laurate [Galactose monolaurate]		+	no precipitation due to coaggregation is observed
